Results published in US10407445B2, “Hepatitis C virus inhibitors” (ENANTA PHARMACEUTICALS, INC., priority 2013, dated 2019).
Read-outs that look alike come from different tables or passages of the source.

Assays:
Format in all cases: cell-based
[1] = tested on: GT1a replicon encoding NS5A mutation Y93H; assay: Transient replication assay, GT1a replicon with NS5A mutation Y93H; details: Hepatitis C virus
[2] = tested on: GT1a replicon encoding NS5A mutation M28T; assay: Transient replication assay, GT1a replicon with NS5A mutation M28T; details: Hepatitis C virus
HCV GT 3a replicon = assay: HCV replicon assay, GT2a chimeric replicon expressing NS5A from GT3a strain S52; details: Hepatitis C virus
Procedure: (§1) The activity of compounds was determined against HCV replicons representing genotypes (GT) 1a, 1b, 2a, and 3a. To generate stable Huh-7.5-based cell lines, HCV replicons were engineered to express the Renilla luciferase reporter (hRluc) fused to the neomycin phosphotransferase (Neo) gene. GT2a and GT3a HCV replicons were based on the JFH-1 subgenomic replicon (Kato et al. 2003 Gastroenterology, 125:1808-1817), in which the NS5A gene was replaced with that of strains J6 and S52 (GT2a and G3a, respectively). The activity of compounds against GT1a replicons encoding NS5A mutations (M28T, Q30R, L31M, Y93C, and Y93H) was also determined in a transient replication assay. The parental GT1a and GT2a replicons (pH/SG-Neo(L+I) and pSG-Neo-JFH1, respectively) were licensed from Apath LLC (Saint Louis, Mo.). The parental GT 1b replicon (pFKi389lucubineo_3_3′_ET) was licensed from ReBLikon GmbH (Germany). HCV replicons were constructed by standard molecular biology techniques described below. All replicon constructs were verified by restriction enzyme digestion and DNA sequencing.
(§2) The plasmid pSG-hRlucNeo-JFH1 was generated from pSG-Neo-JFH1 (Kato et al. 2003, Gastroentrology 125:1808-1817). A fragment containing the JFH-1 5′ NTR—hRluc-Neo gene and two unique restriction sites (AgeI and PmeI) was synthesized (Integrated DNA Technologies, Coralville, Iowa). The resulting synthetic plasmid was digested with AgeI and PmeI and the excised fragment (5′NTR-hRluc-Neo) was ligated into pSG-Neo-JFH1 digested with the same enzymes to generate pSG-hRlucNeo-JFH1. To allow expression of heterologous NS5A sequences, an NS5A shuttle vector was generated from pSG-Neo-JFH1, in which the entire coding sequence of NS5A plus the first eight codons of NS5B were replaced with an AfeI restriction site. This was done by Infusion cloning (Clontech, Mountain View, Calif.) from two PCR products that were generated using pSG-Neo-JFH1 as a template and the following primer pairs:
(§3) Underlined sequences denote regions of overlap necessary for Infusion cloning. Purified PCR products were cloned directly into an NsiI/SnaBI digested pSG-Neo-JFH1 following the manufacturer's instructions to generate pSG-Neo-JFH1-5Ashuttle. The 2023 base pair AgeI/PmeI fragment from pSG-hRlucNeo-JFH1 was then ligated into pSG-Neo-JFH1-5Ashuttle to generate pSG-hRlucNeo-JFH1-5Ashuttle. To generate the 2a-2a-(J6) and 2a-3a-(S52) NS5A chimeric replicons, the full length NS5A sequences from GT2a strain J6 (accession AF177036) and GT3a strain S52 (accession GU814263), with the addition of the first eight codons of JFH-1 NS5B (5′-TCCATGTCATACTCCTGGACCGGG-3′), were synthesized by GeneArt (Life Technologies, Carlsbad Calif.). J6 and S52 NS5A sequences were then PCR amplified from the synthetic clones using the appropriate forward primer:
(§4) Underlined sequences denote regions of overlap with pSG-hRlucNeo-JFH1-5Ashuttle necessary for Infusion cloning. Purified PCR products were directly cloned into AfeI-digested shuttle vector by Infusion cloning following the manufacturer's instructions.
(§5) Stable HCV replicon cell lines were grown in complete media (Dulbecco's modified Eagle medium [DMEM], 2 mM L-glutamine, 0.1 mM essential amino acids, 1 mM sodium pyruvate, 10% heat inactivated fetal bovine serum) with the addition 500 μg/ml […] (G418). Huh7-lunet cells were maintained in the same medium without the addition of G418. Cells were routinely passaged at a dilution of 1:4 two times a week. The assay medium for both luciferase reporter HCV replicon and cytotoxicity assays used phenol red-free DMEM and lacked G418. For each stable replicon assay, a sixteen point half-log dilution series of compound was stamped (0.5 ul compound per well) into three replica 384-well plates, to which cells were added directly (4000 cells/well). […]

[3] = tested on: GT1a replicon encoding NS5A mutation L31V; assay: Transient replication assay, GT1a replicon with NS5A mutation L31V; details: Hepatitis C virus
HCV GT 2a-J6 replicon = assay: HCV replicon assay, GT2a chimeric replicon expressing NS5A from GT2a strain J6; details: Hepatitis C virus
Procedure: as §1, §2, §3, §4, §5

HCV GT 1b replicon = assay: HCV replicon assay, stable GT 1b replicon (Renilla luciferase); details: Hepatitis C virus, GT1B, 72 h
Procedure: as §1
The hRluc-Neo cassette was PCR amplified from pF9 cytomegalovirus (CMV) hRluc-Neo Flexi(R) (Promega) using Accuprime Super Mix II (Invitrogen) and the following primers, which introduce restriction sites: […]
The amplification product was subcloned into pCR2.1-TOPO (Invitrogen). The resulting plasmid was digested with AscI and NotI, and the excised hRluc-Neo fragment was ligated using the Roche Quick Ligation Kit (Roche) into pFKi389lucubineo_3_3′_ET digested with the same enzymes.
Stable HCV replicon cell lines were grown in complete media (Dulbecco's modified Eagle medium [DMEM], 2 mM L-glutamine, 0.1 mM essential amino acids, 1 mM sodium pyruvate, 10% heat inactivated fetal bovine serum) with the addition 500 μg/ml […] (G418). Huh7-lunet cells were maintained in the same medium without the addition of G418. Cells were routinely passaged at a dilution of 1:4 two times a week. The assay medium for both luciferase reporter HCV replicon and cytotoxicity assays used phenol red-free DMEM and lacked G418. For each stable replicon assay, a sixteen point half-log dilution series of compound was stamped (0.5 ul compound per well) into three replica 384-well plates, to which cells were added directly (4000 cells/well). For the transient replication assay, Huh7-lunet cells in ice-cold phosphate buffered saline (PBS) were electroporated (BioRad electroporator; 950 uF, 270V) with 10 ug purified in vitro transcribed HCV replicon RNA, followed by resuspension in complete media and plating (8000 cells/well) into compound stamped 384-well plates. Luciferase activity of compound-treated cells was measured relative to DMSO-treated cells after 72 h incubation using RENILLA-GLO™ Luciferase Assay (Promega). Cytotoxicity (CC50) in the GT1b replicon cell line was analyzed using CELL TITER-GLO™ (Promega).
The compounds of the present invention can be effective against the HCV 1b genotype. It should also be understood that the compounds of the present invention can inhibit multiple genotypes of HCV. In one embodiment compound of the present invention are active against the 1a, 1b, 2a, 2b, 3a, 4a, and 5a genotypes. In another embodiment compound of the present invention are active against the HCV resistant mutants. […] EC50s are in pM against HCV GT 1a and GT 1b; and nM against GT 2a-J6, GT 3a and GT1a resistant variants (M28T, Q30R, L31V, Y93C and Y93H).

Row | Structure (SMILES) | EC50 ([1]; read-out: EC50 1a Y93H) [nM] | EC50 ([2]; read-out: EC50 1a M28T) [nM] | EC50 (HCV GT 3a replicon; 72 h, read-out: EC50 3a) [nM] | EC50 ([3]; read-out: EC50 1a L31V) [nM] | EC50 (HCV GT 2a-J6 replicon; 72 h, read-out: EC50 2a J6) [nM] | EC50 (HCV GT 1b replicon) [nM] | EC50 ([1]; read-out: EC50 (nM) 1a Y93H) [nM] | EC50 ([2]; read-out: EC50 (nM) 1a M28T) [nM] | EC50 (HCV GT 3a replicon; read-out: EC50 (nM) 3a) [nM] | EC50 ([3]; read-out: EC50 (nM) 1a L31V) [nM] | EC50 (HCV GT 2a-J6 replicon; read-out: EC50 (nM) 2a-J6) [nM]
1 | COC(=O)N[C@H](C(=O)N1[C@H](c2nc3ccc4cc(-c5ccc(-c6cnc([C@@H]7C[C@@]8(CCCOC8)CN7C(=O)[C@@H](NC(=O)OC)C7C[C@@H](C)O[C@H](C)C7)[nH]6)cc5)ccc4c3[nH]2)C[C@@H]2CCCC[C@@H]21)C(C)C (stereo in doubt) [Compound 38] | 0.2 | 0.002 | 0.07 | 0.002 | 0.09 | 0.015 | – | – | – | – | –
2 | COC(=O)N[C@H](C(=O)N1[C@H](c2nc3ccc4cc(-c5ccc(-c6cnc([C@@H]7C[C@@]8(CCCOC8)CN7C(=O)[C@H](NC(=O)OC)C7C[C@@H](C)O[C@H](C)C7)[nH]6)cc5)ccc4c3[nH]2)C[C@@H]2CCCC[C@@H]21)C(C)C (stereo in doubt) [Compound 39] | 213 | 0.4 | 48 | 4 | 41 | 0.029 | – | – | – | – | –
3 | COC(=O)N[C@H](C(=O)N1C[C@]2(CCCOC2)C[C@H]1c1nc2ccc3cc(-c4ccc(-c5cnc([C@@H]6C[C@H]7C[C@H]7N6C(=O)[C@@H](NC(=O)OC)C(C)C)[nH]5)cc4)ccc3c2[nH]1)C(C)C [Compound 5] | 2 | 0.03 | 0.5 | 0.1 | 3 | 0.011 | – | – | – | – | –
4 | COC(=O)N[C@H](C(=O)N1C[C@]2(CCCOC2)C[C@H]1c1nc2ccc3cc(-c4ccc5c(ccc6nc([C@@H]7C[C@H]8C[C@H]8N7C(=O)[C@@H](NC(=O)OC)C(C)C)[nH]c65)c4)ccc3c2[nH]1)C(C)C [Compound 6] | 0.8 | 0.06 | 0.08 | 0.2 | 0.07 | 0.012 | – | – | – | – | –
5 | COC(=O)N[C@H](C(=O)N1CC2(CC2)C[C@H]1c1nc2ccc3cc(-c4ccc5c(ccc6nc([C@@H]7C[C@@]8(CCCOC8)CN7C(=O)[C@@H](NC(=O)OC)C(C)C)[nH]c65)c4)ccc3c2[nH]1)C(C)C [Compound 7] | 1 | 0.02 | 0.05 | 0.1 | 0.3 | 0.012 | – | – | – | – | –
6 | COC(=O)N[C@H](C(=O)N1CC2(CC2)C[C@H]1c1ncc(-c2ccc(-c3ccc4c(ccc5nc([C@@H]6C[C@@]7(CCCOC7)CN6C(=O)[C@@H](NC(=O)OC)C(C)C)[nH]c54)c3)cc2)[nH]1)C(C)C [Compound 8] | 4 | 0.06 | 0.9 | 0.2 | 8 | 0.01 | – | – | – | – | –
7 | COC(=O)N[C@H](C(=O)N1C[C@]2(CCCOC2)C[C@H]1c1nc2ccc3cc(-c4ccc5c(ccc6nc([C@@H]7C[C@@H]8CCC[C@@H]8N7C(=O)[C@@H](NC(=O)OC)C(C)C)[nH]c65)c4)ccc3c2[nH]1)C(C)C [Compound 9] | 2 | 0.03 | 0.06 | 0.07 | 0.04 | 0.006 | – | – | – | – | –
8 | COC(=O)N[C@H](C(=O)N1C[C@]2(CCCOC2)C[C@H]1c1nc2ccc3cc(-c4ccc(-c5cnc([C@@H]6C[C@@H]7CCC[C@@H]7N6C(=O)[C@@H](NC(=O)OC)C(C)C)[nH]5)cc4)ccc3c2[nH]1)C(C)C [Compound 10] | 4 | 0.04 | 0.2 | 0.05 | 0.2 | 0.005 | – | – | – | – | –
9 | COC(=O)N[C@H](C(=O)N1C[C@]2(CCCOC2)C[C@H]1c1ncc(-c2ccc(-c3ccc4c(ccc5nc([C@@H]6C[C@@]7(CCCOC7)CN6C(=O)[C@@H](NC(=O)OC)C(C)C)[nH]c54)c3)cc2)[nH]1)C(C)C [Compound 11] | 2 | 0.02 | 0.4 | 0.08 | 2 | 0.052 | – | – | – | – | –
10 | COC(=O)N[C@H](C(=O)N1C[C@]2(CCCOC2)C[C@H]1c1ncc(-c2ccc3cc4cc(-c5cnc([C@@H]6C[C@@H]7CCCC[C@@H]7N6C(=O)[C@@H](NC(=O)OC)C(C)C)[nH]5)ccc4cc3c2)[nH]1)C(C)C [Compound 13] | 9 | 0.02 | 0.9 | 0.8 | 17 | 0.021 | – | – | – | – | –
11 | COC(=O)N[C@H](C(=O)N1C[C@]2(CCCOC2)C[C@H]1c1ncc(-c2ccc(-c3ccc4c(ccc5nc([C@@H]6CCCN6C(=O)[C@@H](NC(=O)OC)C(C)C)[nH]c54)c3)cc2)[nH]1)C(C)C [drawing 233] | – | – | – | – | – | – | 8 | 0.2 | 0.08 | 1 | 0.6
